# In DBAASP:
# How the values were obtained:
# Assay in all cases: ≥ marks a high value that may be exact or a test limit, other limits are often not marked, values filed in µg/mL are converted to µM
# Bacillus subtilis = test system: Bacillus subtilis
# Candida albicans = test system: Candida albicans
# Escherichia coli = test system: Escherichia coli
# Klebsiella pneumoniae = test system: Klebsiella pneumoniae
# Micrococcus luteus = test system: Micrococcus luteus
# Proteus mirabilis = test system: Proteus mirabilis
# Pseudomonas aeruginosa = test system: Pseudomonas aeruginosa
# Salmonella typhimurium = test system: Salmonella typhimurium
# Serratia marcescens = test system: Serratia marcescens
# Shigella dysenteriae = test system: Shigella dysenteriae
# Botrytis cinerea = test system: Botrytis cinerea
# [1] = test system: Candida albicans ATCC 10231
# [2] = test system: Escherichia coli ATCC 11775
# [3] = test system: Staphylococcus aureus ATCC 12600
# [4] = test system: Acinetobacter baumannii NM8
# [5] = test system: Candida albicans ATCC 90028
# [6] = test system: Escherichia coli ATCC 25726
# [7] = test system: Escherichia coli ATCC 25922
# [8] = test system: Klebsiella pneumoniae ATCC 700603
# [9] = test system: Pseudomonas aeruginosa ATCC 27853
# [10] = test system: Staphylococcus aureus ATCC 25923
# [11] = test system: Staphylococcus epidermidis RP62A/1
# [12] = test system: Staphylococcus epidermidis RP62A
# [13] = test system: Stenotrophomonas maltophilia B32/4
# [14] = test system: Bacillus subtilis ATCC 6633
# [15] = test system: Candida albicans ATCC 20032
# Bacillus megaterium Bm11 = test system: Bacillus megaterium Bm11
# [16] = test system: Staphylococcus aureus Cowan 1
# Staphylococcus capitis 1 = test system: Staphylococcus capitis 1
# [17] = test system: Yersinia pseudotuberculosis YPIII
# [18] = test system: Pseudomonas aeruginosa ATCC 15692
# Saccharomyces cerevisiae = test system: Saccharomyces cerevisiae
compound,measurement,setting,value
CC[C@H](C)[C@H](NC(=O)CN)C(=O)N[C@@H](Cc1ccccc1)C(=O)N[C@@H](CO)C(=O)N[C@@H](CCCCN)C(=O)N[C@@H](CC(C)C)C(=O)N[C@@H](C)C(=O)NCC(=O)N[C@@H](CCCCN)C(=O)N[C@@H](CCCCN)C(=O)N[C@H](C(=O)N[C@@H](CCCCN)C(=O)N[C@@H](CC(N)=O)C(=O)N[C@@H](CC(C)C)C(=O)N[C@@H](CC(C)C)C(=O)N[C@H](C(=O)N[C@@H](CO)C(=O)NCC(=O)N[C@@H](CC(C)C)C(=O)N[C@@H](CCCCN)C(=O)N[C@@H](CC(N)=O)C(=O)N[C@H](C(=O)NCC(=O)N[C@@H](CCCCN)C(=O)N[C@@H](CCC(=O)O)C(=O)N[C@H](C(=O)NCC(=O)N[C@@H](CCSC)C(=O)N[C@@H](CC(=O)O)C(=O)N[C@H](C(=O)N[C@H](C(=O)N[C@@H](CCCN=C(N)N)C(=O)N[C@H](C(=O)NCC(=O)N[C@H](C(=O)N[C@@H](CC(=O)O)C(=O)N[C@H](C(=O)N[C@@H](C)C(=O)NCC(=O)N[C@H]1CSSC[C@@H](C(=O)O)NC(=O)[C@H](CCC(=O)O)NC(=O)CNC(=O)[C@H](CCCCN)NC(=O)[C@H]([C@@H](C)CC)NC(=O)[C@H](CCCCN)NC1=O)[C@@H](C)CC)[C@@H](C)CC)[C@@H](C)O)C(C)C)C(C)C)C(C)C)[C@@H](C)CC)[C@@H](C)CC)[C@@H](C)CC [GIFSKLAGKKIKNLLISGLKNIGKEVGMDVVRTGIDIAGCKIKGEC],MIC,Bacillus subtilis,1.31 µM
same,MIC,Candida albicans,41.5 µM
same,MIC,Escherichia coli,5.19 µM
same,MIC,Klebsiella pneumoniae,2.6 µM
same,MIC,Micrococcus luteus,1.31 µM
same,MIC,Proteus mirabilis,≥ 41.5 µM
same,MIC,Pseudomonas aeruginosa,5.19 µM
same,MIC,Salmonella typhimurium,5.19 µM
same,MIC,Serratia marcescens,≥ 41.5 µM
same,MIC,Shigella dysenteriae,2.6 µM
CC[C@H](C)[C@H](NC(=O)[C@H](C)N)C(=O)N[C@@H](CC(N)=O)C(=O)N1CCC[C@H]1C(=O)N[C@@H](CCCCN)C(=O)N[C@@H](CO)C(=O)N[C@H](C(=O)N[C@@H](CCC(N)=O)C(=O)N[C@@H](CO)C(=O)N[C@@H](CC(C)C)C(=O)N[C@@H](CC(C)C)C(N)=O)C(C)C [AINPKSVQSLL],MIC,Botrytis cinerea,≥ 200 µM
same,MIC,[1],> 200 µM
same,MIC,[2],≥ 200 µM
same,MIC,[3],≥ 200 µM
CC[C@H](C)[C@H](N)C(=O)N[C@@H](CC(C)C)C(=O)NCC(=O)N[C@@H](CCCCN)C(=O)N[C@@H](CC(C)C)C(=O)N[C@@H](CC(C)C)C(=O)N[C@@H](CO)C(=O)N[C@H](C(=O)N[C@@H](C)C(=O)N[C@@H](C)C(=O)NCC(=O)N[C@@H](CC(C)C)C(=O)N[C@@H](CC(C)C)C(=O)N[C@@H](CO)C(=O)N[C@@H](CC(N)=O)C(=O)N[C@@H](CC(C)C)C(N)=O)[C@@H](C)O [ILGKLLSTAAGLLSNL],MIC,[4],≥ 64 µM
same,MIC,[5],≥ 64 µM
same,MIC,[6],≥ 256 µM
same,MIC,[7],150 µM
same,MIC,[8],256 µM
same,MIC,[9],256 µM
same,MIC,[10],50 µM
same,MIC,[11],≥ 32 µM
same,MIC,[12],≥ 64 µM
same,MIC,[13],≥ 128 µM
CC[C@H](C)[C@H](N)C(=O)N[C@@H](CC(C)C)C(=O)NCC(=O)N[C@@H](CCCCN)C(=O)N[C@@H](CC(C)C)C(=O)N[C@@H](CC(C)C)C(=O)N[C@@H](CO)C(=O)N[C@H](C(=O)N[C@@H](C)C(=O)N[C@@H](C)C(=O)NCC(=O)N[C@@H](CC(C)C)C(=O)N[C@@H](CC(C)C)C(=O)N[C@@H](CCCCN)C(=O)N[C@@H](CC(N)=O)C(=O)N[C@@H](CC(C)C)C(N)=O)[C@@H](C)O [ILGKLLSTAAGLLKNL],MIC,[4],≥ 32 µM
same,MIC,[5],≥ 32 µM
same,MIC,[6],≥ 32 µM
same,MIC,[8],128 µM
same,MIC,[9],128 µM
same,MIC,[10],16 µM
same,MIC,[11],8 µM
same,MIC,[12],16 µM
same,MIC,[13],≥ 64 µM
CC[C@H](C)[C@H](N)C(=O)N[C@@H](CC(C)C)C(=O)NCC(=O)N1CCC[C@H]1C(=O)N[C@H](C(=O)N[C@@H](CC(C)C)C(=O)NCC(=O)N[C@@H](CC(C)C)C(=O)N[C@H](C(=O)NCC(=O)N[C@@H](CC(N)=O)C(=O)N[C@@H](C)C(=O)N[C@@H](CC(C)C)C(=O)NCC(=O)NCC(=O)N[C@@H](CC(C)C)C(=O)N[C@H](C(=O)N[C@@H](CCCCN)C(=O)N[C@@H](CCCCN)C(=O)N[C@@H](CC(C)C)C(N)=O)[C@@H](C)CC)C(C)C)C(C)C [ILGPVLGLVGNALGGLIKKL],MIC,[14],9.66 µM
same,MIC,[15],4.83 µM
same,MIC,[7],> 51.4 µM
same,MIC,[10],4.83 µM
CC[C@H](C)[C@H](NC(=O)CNC(=O)[C@H](CO)NC(=O)[C@H](CC(C)C)NC(=O)[C@@H](NC(=O)[C@H](CCCN=C(N)N)NC(=O)CNC(=O)[C@H](C)NC(=O)[C@H](CC(C)C)NC(=O)[C@@H]1CCCN1C(=O)[C@H](CC(C)C)NC(=O)[C@@H](N)Cc1ccccc1)C(C)C)C(=O)N[C@@H](CC(C)C)C(N)=O [FLPLAGRVLSGIL],MIC,Bacillus megaterium Bm11,20 µM
same,MIC,[1],20 µM
same,MIC,[7],> 40 µM
same,MIC,[16],≥ 40 µM
same,MIC,Staphylococcus capitis 1,≥ 40 µM
same,MIC,[17],≥ 40 µM
CC[C@H](C)[C@H](NC(=O)[C@H](CC(C)C)NC(=O)[C@H](CCCCN)NC(=O)[C@H](CO)NC(=O)[C@H](C)NC(=O)CNC(=O)[C@H](CCCCN)NC(=O)[C@H](CC(C)C)NC(=O)[C@H](C)NC(=O)[C@H](C)NC(=O)[C@H](CCCCN)NC(=O)[C@H](C)NC(=O)[C@H](CC(C)C)NC(=O)[C@H](CC(C)C)NC(=O)CNC(=O)[C@H](Cc1ccccc1)NC(=O)[C@@H](NC(=O)CN)C(C)C)C(=O)N1CCC[C@H]1C(=O)N[C@@H](Cc1cnc[nH]1)C(=O)N[C@@H](CC(C)C)C(=O)N[C@@H](CC(C)C)C(=O)N1CCC[C@H]1C(=O)N[C@@H](CO)C(=O)N[C@@H](CCCN=C(N)N)C(=O)N[C@@H](CCC(N)=O)C(=O)N[C@@H](CCC(N)=O)C(=O)O [GVFGLLAKAALKGASKLIPHLLPSRQQ],MIC,[7],1 µM
same,MIC,Micrococcus luteus,0.5 µM
same,MIC,[18],5.66 µM
same,MIC,Saccharomyces cerevisiae,16 µM
same,MIC,[10],1 µM
CC[C@H](C)[C@H](NC(=O)CN)C(=O)NCC(=O)N[C@H](C(=O)N[C@@H](CCCCN)C(=O)N[C@@H](Cc1ccccc1)C(=O)N[C@@H](CC(C)C)C(=O)NCC(=O)NCC(=O)N[C@H](C(=O)N[C@@H](CCCCN)C(=O)N[C@H](C(=O)N[C@@H](C)C(=O)N[C@@H](CC(C)C)C(=O)N[C@@H](CCCCN)C(=O)NCC(=O)N[C@@H](C)C(=O)N[C@@H](CC(C)C)C(=O)N[C@@H](CCCCN)C(=O)N[C@@H](CCC(=O)O)C(=O)N[C@@H](CC(C)C)C(=O)N[C@@H](C)C(=O)N[C@@H](Cc1ccccc1)C(=O)N[C@H](C(=O)N[C@@H](Cc1ccc(O)cc1)C(=O)N[C@H](C(=O)N[C@@H](CC(N)=O)C(N)=O)C(C)C)[C@@H](C)O)[C@@H](C)O)C(C)C)[C@@H](C)O [GIGTKFLGGVKTALKGALKELAFTYVN],MIC,[14],≥ 35.7 µM
same,MIC,[15],≥ 35.7 µM
same,MIC,[7],13.4 µM
same,MIC,[10],6.72 µM
CC[C@H](C)[C@H](NC(=O)CNC(=O)[C@H](CO)NC(=O)[C@H](CC(C)C)NC(=O)[C@@H](NC(=O)[C@H](C)NC(=O)CNC(=O)[C@@H](NC(=O)[C@H](CC(C)C)NC(=O)[C@@H]1CCCN1C(=O)[C@H](CC(C)C)NC(=O)[C@@H](N)Cc1ccccc1)[C@@H](C)CC)C(C)C)C(=O)N[C@@H](CC(C)C)C(N)=O [FLPLIGAVLSGIL],MIC,Bacillus megaterium Bm11,≥ 40 µM
same,MIC,[1],> 40 µM
same,MIC,[7],> 40 µM
same,MIC,[16],≥ 40 µM
same,MIC,Staphylococcus capitis 1,≥ 40 µM
same,MIC,[17],≥ 40 µM
